Earlier results on one sequence are cited in US9320791B2, “Peptides from chaperonin 60.1” (PE[…], priority 2011, dated 2016).

The test system of this data set is recruitment of eosinophils. The following applies: animal model of allergic airway inflammation; disclosed in WO2009/106819.

As to “DGSVVVNKVSELPAGHGLNVNTLSYGDLAAD (listed as Mycobacterium tuberculosis) [Peptide 4, peptide derivable from MtCpn60.1 disclosed in WO2009/106819]”, the recruitment of eosinophils result is given as “significantly reduce”.
